Data as given in patent US20260217708A1, “FUSED BENZAZEPINE DERIVATIVES FOR USE IN THE TREATMENT OF CANCER AND EPILEPSY” (UCB BIOPHARMA SRL, priority 2023, published 2026).

What was measured:
system Xc^− [1] = biological target: T1, system Xc^− (Homo sapiens, UniProt Q9UPY5); assay: Cystine-induced glutamate release assay; assay type: cell-based; design: endogenous in cells; host or cells: H4 cells; conditions: H4 cells, sodium-free HEPES buffer, 50 μM L-Cystine, 2 hours, Amplex Red glutamate readout; for IC50: read-out: pIC50 Cystine-induced glutamate release assay (converted)
T1 sequence (Q9UPY5 1-501): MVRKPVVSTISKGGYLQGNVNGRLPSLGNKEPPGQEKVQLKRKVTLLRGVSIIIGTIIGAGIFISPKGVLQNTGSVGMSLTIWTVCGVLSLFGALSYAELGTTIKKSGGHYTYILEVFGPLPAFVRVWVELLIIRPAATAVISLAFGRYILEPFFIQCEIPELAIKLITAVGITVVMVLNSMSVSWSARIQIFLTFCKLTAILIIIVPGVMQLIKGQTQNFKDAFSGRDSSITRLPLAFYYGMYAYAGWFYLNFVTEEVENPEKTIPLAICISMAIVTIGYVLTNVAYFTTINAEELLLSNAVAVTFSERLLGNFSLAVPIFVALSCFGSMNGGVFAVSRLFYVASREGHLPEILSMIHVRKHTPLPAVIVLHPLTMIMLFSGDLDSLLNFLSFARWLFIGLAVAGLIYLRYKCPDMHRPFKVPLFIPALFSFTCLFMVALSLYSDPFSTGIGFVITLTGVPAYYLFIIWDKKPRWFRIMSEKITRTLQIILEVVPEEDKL
T1 sequence (P08195 1-529 partner): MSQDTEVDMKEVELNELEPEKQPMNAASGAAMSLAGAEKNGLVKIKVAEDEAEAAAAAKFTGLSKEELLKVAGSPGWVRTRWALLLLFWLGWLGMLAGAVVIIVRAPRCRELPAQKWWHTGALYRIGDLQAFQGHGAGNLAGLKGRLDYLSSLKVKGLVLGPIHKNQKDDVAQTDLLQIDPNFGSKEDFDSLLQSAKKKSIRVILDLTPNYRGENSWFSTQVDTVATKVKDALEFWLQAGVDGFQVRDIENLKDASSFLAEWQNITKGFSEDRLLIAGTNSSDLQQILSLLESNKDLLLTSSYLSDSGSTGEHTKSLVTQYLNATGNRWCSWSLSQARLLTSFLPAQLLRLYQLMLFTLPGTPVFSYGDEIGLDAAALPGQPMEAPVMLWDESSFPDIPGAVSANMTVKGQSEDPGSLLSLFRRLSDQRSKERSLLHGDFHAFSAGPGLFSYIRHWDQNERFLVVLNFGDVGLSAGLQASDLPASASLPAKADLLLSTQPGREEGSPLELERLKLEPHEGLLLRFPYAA
Outline: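 IC50 (reported as pIC50) normalized to DMSO 1% and Erastin 50 μM controls, from Amplex Red fluorescence of glutamate exported into supernatant. H4 cells were washed into sodium-free buffer to exclude EAAT transport, then given compound with 50 μM L-cystine for 2 h in the incubator.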

system Xc^− [2] = biological target: T1, system Xc^−; assay: [^14C]L-Cystine uptake assay; assay type: cell-based; design: endogenous in cells; host or cells: H4 cells; conditions: H4 cells, sodium-free HEPES buffer, 0.5 μM L-[14C]Cystine and 4.5 μM L-Cystine, 1 hour at 37° C.; for IC50: read-out: pIC50 [^14C] L-Cystine uptake assay (converted)
Outline: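 Compound effect is given as pIC50, taken between controls of 1% DMSO and 50 μM Erastin. Human H4 cells were pretreated 15 min with compound in sodium-free buffer, then took up 0.5 μM [14C]cystine with 4.5 μM cold cystine for 1 hour at 37° C, read by scintillation proximity counting.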

| IC50 (system Xc^− [1]) [µM] | IC50 (system Xc^− [2]) [µM] | pIC50 Cystine-induced glutamate release assay (system Xc^− [1]) | pIC50 [^14C] L-Cystine uptake assay (system Xc^− [2]) | SMILES |
| --- | --- | --- | --- | --- |
| 0.0158 to 0.0398 | < 0.0158 | – | – | CO[C@H]1C(=O)N(CC(=O)Nc2ccc(C(F)(F)F)cc2)c2cc(C)nc(Cl)c2-c2cccnc21 (single isomer, unassigned) [#210, Enantiomer (10S) or (10R) of 2-[3-chloro-10-methoxy-5-methyl-9-oxo-4,8,12-triazatricyclo[9.4.0.0^2,7]pentadeca-1(11),2(7),3,5,12,14-hexaen-8-yl]-N-[4-(trifluoromethyl)phenyl]acetamide] |
| < 0.0158 | 0.0158 to 0.0398 | – | – | Cc1cc2c(c(F)n1)-c1cccnc1[C@@H](O)C(=O)N2CC(=O)Nc1ccc(C(F)(F)F)cc1 (single isomer, unassigned) [#211, Enantiomer (10S) or (10R) of 2-[3-fluoro-10-hydroxy-5-methyl-9-oxo-4,8,12-triazatricyclo[9.4.0.0^2,7]pentadeca-1(11),2(7),3,5,12,14-hexaen-8-yl]-N-[4-(trifluoromethyl)phenyl]acetamide] |
| 0.0158 to 0.0398 | 0.0158 to 0.0398 | – | – | Cc1cc2c(c(F)n1)-c1cccnc1C(O)C(=O)N2CC(=O)Nc1ccc(Br)c(Cl)c1 (single isomer, unassigned) [#213, Enantiomer (10S) or (10R) of N-(4-bromo-3-chloro-phenyl)-2-[(10S)-3-fluoro-10-hydroxy-5-methyl-9-oxo-4,8,12-triazatricyclo[9.4.0.0^2,7]pentadeca-1(11),2(7),3,5,12,14-hexaen-8-yl]acetamide] |
| – | – | D (plC50 > about 7.80) | C (about 7.40 < pIC50 ≤ about 7.80) | COc1cc2c(c(F)n1)-c1cccnc1C(C)C(=O)N2CC(=O)Nc1ccc(C(F)F)cc1 (single isomer, unassigned) [#214, Enantiomer (10S) or (10R) of N-[4-(difluoromethyl)phenyl]-2-[3-fluoro-5-methoxy-10-methyl-9-oxo-4,8,12-triazatricyclo[9.4.0.0^2,7]pentadeca-1(15),2(7),3,5,11,13-hexaen-8-yl]acetamide] |
| – | – | C (about 7.40 < pIC50 ≤ about 7.80) | C (about 7.40 < pIC50 ≤ about 7.80) | COc1cc2c(c(F)n1)-c1cccnc1C(C)C(=O)N2CC(=O)Nc1ccc(Cl)c(F)c1 (single isomer, unassigned) [#215, Enantiomer (10S) or (10R) of N-(4-chloro-3-fluoro-phenyl)-2-[3-fluoro-5-methoxy-10-methyl-9-oxo-4,8,12-triazatricyclo[9.4.0.0^2,7]pentadeca-1(15),2(7),3,5,11,13-hexaen-8-yl]acetamide] |
| 0.0398 to 0.1 | 0.0158 to 0.0398 | – | – | COc1cc2c(c(F)n1)-c1cccnc1C(C)C(=O)N2CC(=O)Nc1ccc(F)c(Cl)c1 (single isomer, unassigned) [#216, Enantiomer (10S) or (10R) of N-(3-chloro-4-fluoro-phenyl)-2-(3-fluoro-5-methoxy-10-methyl-9-oxo-4,8,12-triazatricyclo[9.4.0.0^2,7]pentadeca-1(11),2(7),3,5,12,14-hexaen-8-yl)acetamide] |
| < 0.0158 | < 0.0158 | – | – | Cc1cc2c(c(F)n1)-c1cncnc1C(C)C(=O)N2CC(=O)Nc1ccc(Cl)c(F)c1 (single isomer, unassigned) [#217, Enantiomer (8S) or (8R) of N-(4-chloro-3-fluoro-phenyl)-2-[15-fluoro-8,13-dimethyl-9-oxo-4,6,10,14-tetrazatricyclo[9.4.0.0^2,7]pentadeca-1(15),2,4,6,11,13-hexaen-10-yl]acetamide] |
| 0.0158 to 0.0398 | 0.1 to 0.501 | – | – | Cc1cc2c(c(F)n1)-c1cncnc1C(C)C(=O)N2CC(=O)Nc1ccc(C(F)F)cc1 (single isomer, unassigned) [#218, Enantiomer (8S) or (8S) of (N-[4-(difluoromethyl)phenyl]-2-[15-fluoro-8,13-dimethyl-9-oxo-4,6,10,14-tetrazatricyclo[9.4.0.0^2,7]pentadeca-1(15),2,4,6,11,13-hexaen-10-yl]acetamide] |
| < 0.0158 | < 0.0158 | – | – | Cc1cc2c(c(=O)n1C)-c1ccccc1C(C)C(=O)N2CC(=O)Nc1ccc(Cl)c(F)c1 (single isomer, unassigned) [#219, Enantiomer (7S) or (7R) of N-(4-chloro-3-fluoro-phenyl)-2-[2,3,7-trimethyl-1,6-dioxo-7H-pyrido[4,3-d][3]benzazepin-5-yl]acetamide] |
| < 0.0158 | < 0.0158 | – | – | Cc1cc2c(c(Cl)n1)-c1cncnc1C(C)C(=O)N2CC(=O)Nc1ccc(Cl)c(F)c1 (single isomer, unassigned) [#220, Enantiomer (8S) or (8R) of 2-[15-chloro-8,13-dimethyl-9-oxo-4,6,10,14-tetrazatricyclo[9.4.0.0^2,7]pentadeca-1(15),2,4,6,11,13-hexaen-10-yl]-N-(4-chloro-3-fluoro-phenyl)acetamide] |
| 0.0398 to 0.1 | 0.1 to 0.501 | – | – | Cc1cc2c(c(F)n1)-c1ccnn1C(C)C(=O)N2CC(=O)Nc1ccc(C(F)F)cc1 (single isomer, unassigned) [#221, Enantiomer (7S) or (7R) of N-[4-(difluoromethyl)phenyl]-2-[14-fluoro-7,12-dimethyl-8-oxo-5,6,9,13-tetrazatricyclo[8.4.0.0^2,6]tetradeca-1(14),2,4,10,12-pentaen-9-yl]acetamide] |
| 0.0158 to 0.0398 | 0.0398 to 0.1 | – | – | Cc1cc2c(c(F)n1)-c1cccnc1C(CO)C(=O)N2CC(=O)Nc1ccc(C(F)F)cc1 (single isomer, unassigned) [#222, Enantiomer (10S) or (10R) of N-[4-(difluoromethyl)phenyl]-2-[3-fluoro-10-(hydroxymethyl)-5-methyl-9-oxo-4,8,12-triazatricyclo[9.4.0.0^2,7]pentadeca-1(15),2(7),3,5,11,13-hexaen-8-yl]acetamide] |
| < 0.0158 | 0.0158 to 0.0398 | – | – | Cc1cc2c(c(Cl)n1)-c1cccnc1C(F)C(=O)N2CC(=O)Nc1ccc(C(F)F)cc1 (single isomer, unassigned) [#223, Enantiomer (10R) or (10S) of 2-[3-chloro-10-fluoro-5-methyl-9-oxo-4,8,12-triazatricyclo[9.4.0.0^2,7]pentadeca-1(11),2(7),3,5,12,14-hexaen-8-yl]-N-[4-(difluoromethyl)phenyl]acetamide] |
| 0.0158 to 0.0398 | < 0.0158 | – | – | Cc1cc2c(c(Cl)n1)-c1cccnc1C(C)C(=O)N2CC(=O)Nc1ccc(Br)c(F)c1 (single isomer, unassigned) [#224, Enantiomer (10S) or (10R) of N-(4-bromo-3-fluoro-phenyl)-2-[3-chloro-5,10-dimethyl-9-oxo-4,8,12-triazatricyclo[9.4.0.0^2,7]pentadeca-1(15),2,4,6,11,13-hexaen-8-yl]acetamide] |
| < 0.0158 | < 0.0158 | – | – | Cc1cc2c(c(Cl)n1)-c1cccnc1C(C)C(=O)N2CC(=O)Nc1ccc(C(F)(F)F)cc1F (single isomer, unassigned) [#225, Enantiomer (10S) or (10R) of N-[2-fluoro-4-(trifluoromethyl)phenyl]-2-[3-chloro-5,10-dimethyl-9-oxo-4,8,12-triazatricyclo[9.4.0.0^2,7]pentadeca-1(11),2(7),3,5,12,14-hexaen-8-yl]acetamide] |
| < 0.0158 | 0.0158 to 0.0398 | – | – | Cc1cc2c(c(Cl)n1)-c1cccnc1C(C)C(=O)N2CC(=O)Nc1cc(F)c(Cl)cc1F (single isomer, unassigned) [#226, Enantiomer (10S) or (10R) of N-(4-chloro-2,5-difluoro-phenyl)-2-[3-chloro-5,10-dimethyl-9-oxo-4,8,12-triazatricyclo[9.4.0.0^2,7]pentadeca-1(11),2(7),3,5,12,14-hexaen-8-yl]acetamide] |
